target: human c-MER catalytic domain (Homo sapiens (Human), UniProt Q12866); experiment: TR-FRET Kinase Activity Biochemical Assay (LanthaScreen); conditions: 10 uM ATP, 1 hour, kinase not given
How it was run: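 Recombinant human c-MER catalytic domain phosphorylated fluorescein-labeled poly-GT substrate. The reaction was stopped with 10 mM EDTA, then 2 nM Tb-labeled anti-phosphotyrosine antibody was added for 30 min. Kinase activity was taken from the 495/520 nm TR-FRET emission ratio after 340 nm excitation.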

Chain of human c-MER catalytic domain (Q12866 587-858): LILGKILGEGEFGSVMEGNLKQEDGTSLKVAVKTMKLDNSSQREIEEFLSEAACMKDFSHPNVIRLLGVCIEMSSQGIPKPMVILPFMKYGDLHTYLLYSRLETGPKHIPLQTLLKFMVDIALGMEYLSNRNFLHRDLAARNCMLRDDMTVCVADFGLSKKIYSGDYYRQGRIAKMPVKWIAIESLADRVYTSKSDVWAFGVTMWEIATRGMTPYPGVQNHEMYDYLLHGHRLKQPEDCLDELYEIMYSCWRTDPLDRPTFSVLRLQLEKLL

SMILES	IC50
Cn1cc(-c2cnc(N)c(C(=O)N[C@@H]3CCN(C(=O)c4ccc(C5=CCCCC5)cc4)C3)c2)cn1 [Example 494, (R)-2-amino-5-(1-methyl-1H-pyrazol-4-yl)-N-(1-(2′,3′,4′,5′-tetrahydro-[1,1′-biphenyl]-4-carbonyl)pyrrolidin-3-yl)nicotinamide]	10 to 100 nM
Cn1cc(-c2cnc(N)c(C(=O)N[C@@H]3CCN(C(=O)c4cccc(-c5ccc6c(c5)NC(=O)C6=O)c4)C3)c2)cn1 [Example 495, (R)-2-amino-N-(1-(3-(2,3-dioxoindolin-6-yl)benzoyl)pyrrolidin-3-yl)-5-(1-methyl-1H-pyrazol-4-yl)nicotinamide]	> 1000 nM
Cn1cc(-c2cnc(N)c(C(=O)N[C@@H]3CCN(C(=O)C4Cc5ccccc5C4)C3)c2)cn1 [Example 496, (R)-2-amino-N-(1-(2,3-dihydro-1H-indene-2-carbonyl)pyrrolidin-3-yl)-5-(1-methyl-1H-pyrazol-4-yl)nicotinamide]	> 1000 nM
Cn1cc(-c2cnc(N)c(C(=O)N[C@@H]3CCN(C(=O)c4nc5cc(Cl)ccc5o4)C3)c2)cn1 [Example 498, (R)-2-amino-N-(1-(5-chlorobenzo[d]oxazole-2-carbonyl)pyrrolidin-3-yl)-5-(1-methyl-1H-pyrazol-4-yl)nicotinamide]	> 1000 nM
Cn1cc(-c2cnc(N)c(C(=O)N[C@@H]3CCN(C(=O)c4nn(C)c5ccccc45)C3)c2)cn1 [Example 499, (R)-2-amino-N-(1-(1-methyl-1H-indazole-3-carbonyl)pyrrolidin-3-yl)-5-(1-methyl-1H-pyrazol-4-yl)nicotinamide]	100 to 1000 nM
Cc1onc(-c2ccccc2)c1C(=O)N1CC[C@@H](NC(=O)c2cc(-c3cnn(C)c3)cnc2N)C1 [Example 500, (R)-2-amino-5-(1-methyl-1H-pyrazol-4-yl)-N-(1-(5-methyl-3-phenylisoxazole-4-carbonyl)pyrrolidin-3-yl)nicotinamide]	> 1000 nM
Cn1cc(-c2cnc(N)c(C(=O)N[C@@H]3CCN(C(=O)c4cccc5c4oc4ccccc45)C3)c2)cn1 [Example 501, (R)-2-amino-N-(1-(dibenzo[b,d]furan-4-carbonyl)pyrrolidin-3-yl)-5-(1-methyl-1H-pyrazol-4-yl)nicotinamide]	> 1000 nM
Cn1cc(-c2cnc(N)c(C(=O)N[C@@H]3CCN(C(=O)c4ccc5[nH]ccc5c4)C3)c2)cn1 [Example 502, (R)—N-(1-(1H-indole-5-carbonyl)pyrrolidin-3-yl)-2-amino-5-(1-methyl-1H-pyrazol-4-yl)nicotinamide]	> 1000 nM
Cn1cc(-c2cnc(N)c(C(=O)N[C@@H]3CCN(C(=O)c4ccc5[nH]c6c(c5c4)CCC6)C3)c2)cn1 [Example 503, (R)-2-amino-5-(1-methyl-1H-pyrazol-4-yl)-N-(1-(1,2,3,4-tetrahydrocyclopenta[b]indole-7-carbonyl)pyrrolidin-3-yl)nicotinamide]	> 1000 nM
Cn1cc(-c2cnc(N)c(C(=O)N[C@@H]3CCN(C(=O)c4ccc(-c5cnn(C6CCN(C(=O)OC(C)(C)C)CC6)c5)cc4)C3)c2)cn1 [Example 511, tert-butyl (R)-4-(4-(4-(3-(2-amino-5-(1-methyl-1H-pyrazol-4-yl)nicotinamido)pyrrolidine-1-carbonyl)phenyl)-1H-pyrazol-1-yl)piperidine-1-carboxylate]	100 to 1000 nM
CC(=O)n1ccc2cc(C(=O)N3CC[C@@H](NC(=O)c4cc(-c5cnn(C)c5)cnc4N)C3)ccc21 [Example 513, (R)—N-(1-(1-acetyl-1H-indole-5-carbonyl)pyrrolidin-3-yl)-2-amino-5-(1-methyl-1H-pyrazol-4-yl)nicotinamide]	100 to 1000 nM
CC(=O)n1ccc2c(C(=O)N3CC[C@@H](NC(=O)c4cc(-c5cnn(C)c5)cnc4N)C3)cccc21 [Example 514, (R)—N-(1-(1-acetyl-1H-indole-4-carbonyl)pyrrolidin-3-yl)-2-amino-5-(1-methyl-1H-pyrazol-4-yl)nicotinamide]	> 1000 nM
Cn1cc(-c2cnc(N)c(C(=O)N[C@@H]3CCN(C(=O)c4cn(-c5ccccc5)nc4C(F)(F)F)C3)c2)cn1 [Example 516, (R)-2-amino-5-(1-methyl-1H-pyrazol-4-yl)-N-(1-(1-phenyl-3-(trifluoromethyl)-1H-pyrazole-4-carbonyl)pyrrolidin-3-yl)nicotinamide]	> 1000 nM
Cc1n[nH]c(C)c1-c1ccc(C(=O)N2CC[C@@H](NC(=O)c3cc(-c4cnn(C)c4)cnc3N)C2)cc1 [Example 518, (R)-2-amino-N-(1-(4-(3,5-dimethyl-1H-pyrazol-4-yl)benzoyl)pyrrolidin-3-yl)-5-(1-methyl-1H-pyrazol-4-yl)nicotinamide]	100 to 1000 nM
Cc1nn(-c2ccc(N)cc2)c(C)c1-c1ccc(C(=O)N2CC[C@@H](NC(=O)c3cc(-c4cnn(C)c4)cnc3N)C2)cc1 [Example 520, (R)-2-amino-N-(1-(4-(1-(4-aminophenyl)-3,5-dimethyl-1H-pyrazol-4-yl)benzoyl)pyrrolidin-3-yl)-5-(1-methyl-1H-pyrazol-4-yl)nicotinamide]	100 to 1000 nM
Cc1nn(C)c(C(F)(F)F)c1-c1ccc(C(=O)N2CC[C@@H](NC(=O)c3cc(-c4cnn(C)c4)cnc3N)C2)cc1 [Example 521, (R)-2-amino-N-(1-(4-(1,3-dimethyl-5-(trifluoromethyl)-1H-pyrazol-4-yl)benzoyl)pyrrolidin-3-yl)-5-(1-methyl-1H-pyrazol-4-yl)nicotinamide]	100 to 1000 nM
COc1ccsc1-c1ccc(C(=O)N2CC[C@@H](NC(=O)c3cc(-c4cnn(C)c4)cnc3N)C2)cc1 [Example 524, (R)-2-amino-N-(1-(4-(3-methoxythiophen-2-yl)benzoyl)pyrrolidin-3-yl)-5-(1-methyl-1H-pyrazol-4-yl)nicotinamide]	10 to 100 nM
CN(C)c1ccc(Oc2ccc(-c3ccc(C(=O)N4CC[C@@H](NC(=O)c5cc(-c6cnn(C)c6)cnc5N)C4)cc3)cc2)cc1 [Example 529, (R)-2-amino-N-(1-(4′-(4-(dimethylamino)phenoxy)-[1,1′-biphenyl]-4-carbonyl)pyrrolidin-3-yl)-5-(1-methyl-1H-pyrazol-4-yl)nicotinamide]	10 to 100 nM
Cn1cc(-c2cnc(N)c(C(=O)N[C@@H]3CCN(C(=O)c4ccc(-c5ccc(Oc6cccc(N)c6)cc5)cc4)C3)c2)cn1 [Example 530, (R)-2-amino-N-(1-(4′-(3-aminophenoxy)-[1,1′-biphenyl]-4-carbonyl)pyrrolidin-3-yl)-5-(1-methyl-1H-pyrazol-4-yl)nicotinamide]	10 to 100 nM
Cn1cc(-c2cnc(N)c(C(=O)N[C@@H]3CCN(C(=O)c4ccc(-c5ccc(OC6CCNCC6)cc5)cc4)C3)c2)cn1 [Example 531, (R)-2-amino-5-(1-methyl-1H-pyrazol-4-yl)-N-(1-(4′-(piperidin-4-yloxy)-[1,1′-biphenyl]-4-carbonyl)pyrrolidin-3-yl)nicotinamide]	10 to 100 nM
Cn1cc(-c2cnc(N)c(C(=O)N[C@@H]3CCN(C(=O)c4ccc(-c5ccc(OC6CCNC6)cc5)cc4)C3)c2)cn1 (stereo partly drawn) [Example 532, 2-amino-5-(1-methyl-1H-pyrazol-4-yl)-N-((3R)-1-(4′-(pyrrolidin-3-yloxy)-[1,1′-biphenyl]-4-carbonyl)pyrrolidin-3-yl)nicotinamide]	100 to 1000 nM
Cn1cc(-c2cnc(N)c(C(=O)N[C@@H]3CCN(C(=O)c4ccc(-c5ccc(Oc6ccc(N)cc6)cc5F)cc4)C3)c2)cn1 [Example 533, (R)-2-amino-N-(1-(4′-(4-aminophenoxy)-2′-fluoro-[1,1′-biphenyl]-4-carbonyl)pyrrolidin-3-yl)-5-(1-methyl-1H-pyrazol-4-yl)nicotinamide]	10 to 100 nM

— US12378224B2 (Dong-A Socio Holdings Co., Ltd., priority 2016, dated 2025)
